# Patent US10662156B2, “Guanidine derivative and medical use thereof” (Toray Industries, Inc., priority 2016, dated 2020)
# Counter-ions that a name gives are not always drawn.
# Target: recombinant GST fusion MALT1 (human MALT1) (Homo sapiens (Human), UniProt Q9UDY8)
# Test: Evaluation of inhibition of protease activity of MALT1 (cleavage of fluorescent peptide substrate Ac-LRSR-AMC)
# Format: biochemical
# Settings: substrate Ac-LRSR-AMC 20 μmol/L, 30° C. for 80 minutes
# Method: The guanidine derivative (I) or the pharmacologically acceptable salt thereof was evaluated for its inhibition of the protease activity of MALT1 in an in vitro experimental system in accordance with the method described in the literature (Cancer Cell, 2012, Vol. 22, p. 825-837). Specifically, the evaluation was conducted by measuring the degree of reduction in fluorescence value by the compound relative to elevation in fluorescence value resulting from the cleavage of a fluorescently labeled artificial peptide substrate by recombinant MALT1.
# A) Preparation of Recombinant GST Fusion MALT1:
# Full-length cDNA of human MALT1 gene (GenBank accession No: AB026118.1) amplified by PCR was inserted in flame to a SalI site located downstream of GST gene in a pGEX6P3 vector (GE Healthcare Japan Corp.) to prepare a vector (hereinafter, referred to as a pGEX6P3-MALT1 vector). Subsequently, E. coli for protein expression (BL21-RIL-codon plus-DE3, Agilent Technologies, Inc.) was transformed with the pGEX6P3-MALT1 vector and then analyzed by ampicillin resistance screening and colony PCR to obtain an E. coli strain expressing recombinant GST fusion MALT1. Protein expression was induced with isopropyl-(3-thiogalactopyranoside. After the expression induction, E. coli precipitates were recovered by centrifugation from the E. coli culture solution, and the E. coli precipitates were homogenized and then centrifuged to obtain a supernatant. The supernatant was purified using GSTrap FF column (GE Healthcare Japan Corp.) to obtain recombinant GST fusion MALT1.
# B) Evaluation of Inhibition of Protease Activity of MALT1:
# To 89 μL of an enzyme solution ([…] GST fusion MALT1, 50 mmol/L MES, 150 mmol/L NaCl, 10% sucrose, 0.1% CHAPS, 10 mmol/L dithiothreitol, and 1 mol/L tri-ammonium citrate) per specimen, 1 μL of a test compound (DMSO-diluted solution) of each concentration was added to prepare a mixed solution. The mixed solution was incubated at room temperature for 30 minutes, followed by the measurement of the fluorescence value of the mixed solution (fluorescence value of the first measurement) (Ex: 380 nm, Em: 460 nm; Envision (Perkin Elmer Inc.)). Next, 10 μL of 200 μmol/L substrate (Ac-LRSR-AMC, SM Biochemicals LLC) was added (final concentration: 20 μmol/L) to the mixed solution, and the mixture was reacted by incubation at 30° C. for 80 minutes, followed by the measurement of the fluorescence value of the reaction solution (fluorescence value of the second measurement) (Ex: 380 nm, Em: 460 nm; Envision (Perkin Elmer Inc.)). A “well nonsupplemented with the test compound (only DMSO was added), nonsupplemented with the enzyme and supplemented with the substrate”, and a “well nonsupplemented with the test compound (only DMSO was added), supplemented with the enzyme and supplemented with the substrate” were established.
# The fluorescence value of the first measurement was defined as “F1”, and the fluorescence value of the second measurement was defined as “F2”. F2−F1 of the “well nonsupplemented with the test compound (only DMSO was added), nonsupplemented with the enzyme and supplemented with the substrate” was defined as “Fback”, F2−F1 of the “well nonsupplemented with the test compound (only DMSO was added), supplemented with the enzyme and supplemented with the substrate” was defined as “Fpositive”, and F2−F1 of the “well supplemented with the test compound, supplemented with the enzyme and supplemented with the substrate” was defined as “Fsample”. The rate of inhibition (%) of the protease activity of MALT1 by the test compound was calculated according to the following expression. Rate of inhibition (%)=100×(1−(Fsample−Fback)/(Fpositive−Fback))
# Chain of recombinant GST fusion MALT1 (human MALT1) (Q9UDY8 whole entry, the tested form may be a part): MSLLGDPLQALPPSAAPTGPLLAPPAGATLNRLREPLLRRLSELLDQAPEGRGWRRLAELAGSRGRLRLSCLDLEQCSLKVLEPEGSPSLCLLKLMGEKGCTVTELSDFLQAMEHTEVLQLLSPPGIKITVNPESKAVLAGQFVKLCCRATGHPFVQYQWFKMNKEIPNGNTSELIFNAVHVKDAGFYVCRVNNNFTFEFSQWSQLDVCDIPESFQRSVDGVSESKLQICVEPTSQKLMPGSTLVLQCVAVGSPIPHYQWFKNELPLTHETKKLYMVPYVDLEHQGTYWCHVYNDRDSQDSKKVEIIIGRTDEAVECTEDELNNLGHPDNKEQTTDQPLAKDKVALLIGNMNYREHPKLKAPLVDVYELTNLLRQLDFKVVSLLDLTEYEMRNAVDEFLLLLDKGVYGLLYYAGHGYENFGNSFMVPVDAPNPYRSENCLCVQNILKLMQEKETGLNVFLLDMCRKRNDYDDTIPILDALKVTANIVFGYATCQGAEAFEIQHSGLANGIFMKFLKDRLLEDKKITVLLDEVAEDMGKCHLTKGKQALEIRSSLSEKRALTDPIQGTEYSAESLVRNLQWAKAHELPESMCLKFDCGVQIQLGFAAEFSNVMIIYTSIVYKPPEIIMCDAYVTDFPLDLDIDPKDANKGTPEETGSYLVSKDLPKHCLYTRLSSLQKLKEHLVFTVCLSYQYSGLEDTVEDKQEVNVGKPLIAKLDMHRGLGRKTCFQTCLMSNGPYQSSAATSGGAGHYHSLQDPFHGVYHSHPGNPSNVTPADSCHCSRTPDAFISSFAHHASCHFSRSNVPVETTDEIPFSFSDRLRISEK
row,Structure (SMILES),IC50
1,"CCOc1cccc(S(=O)(=O)/N=C(\N)NCc2cnc(-c3ccc(Cl)cc3)c(-c3ccc(Cl)cc3)c2)c1 [Compound of Example 51, N-(amino(((5,6-bis(4-chlorophenyl)pyridin-3-yl)methyl)amino)methylene)-3-ethoxybenzenesulfonamide]",185 nM
2,"NC(=O)/N=C(\N)NCc1cnc(-c2ccc(Cl)cc2)c(-c2ccc(Cl)cc2)c1 [Compound of Example 41, 1-(amino(((5,6-bis(4-chlorophenyl)pyridin-3-yl)methyl)amino)methylene)urea Hydrochloride]",679 nM
3,"Cc1ccc(-c2cc(CN/C(N)=N/S(=O)(=O)c3ccccc3)cnc2-c2ccc(Cl)cc2)cc1 [Compound of Example 17, N-(amino(((6-(4-chlorophenyl)-5-(4-methylphenyl)pyridin-3-yl)methyl)amino)methylene)benzenesulfonamide]",606 nM
4,"Cc1ccc(-c2ncc(CN/C(N)=N/S(=O)(=O)c3ccccc3)cc2-c2ccc(Cl)cc2)cc1F [Compound of Example 12, N-(amino(((5-(4-chlorophenyl)-6-(3-fluoro-4-methylphenyl)pyridin-3-yl)methyl)amino)methylene)benzenesulfonamide]",338 nM
5,"N/C(=N\S(=O)(=O)c1ccccc1)NCc1cnc(-c2ccc(O)cc2)c(-c2ccc(Cl)cc2)c1 [Compound of Example 95, N-(amino(((5-(4-chlorophenyl)-6-(4-hydroxyphenyl)pyridin-3-yl)methyl)amino)methylene)benzenesulfonamide Hydrochloride]",1030 nM
6,"NC(=NS(=O)(=O)c1cccs1)NCc1cc(-c2ccc(Cl)cc2)c(-c2ccc(Cl)cc2)cn1 [Compound of Example 43, N-(amino(((4,5-bis(4-chlorophenyl)pyridin-2-yl)methyl)amino)methylene)thiophene-2-sulfonamide]",23 nM
7,"N/C(=N\C(=O)C1CC1)NCc1cnc(-c2ccc(Cl)cc2)c(-c2ccc(Cl)cc2)c1 [Compound of Example 71, N-(amino(((5,6-bis(4-chlorophenyl)pyridin-3-yl)methyl)amino)methylene)cyclopropanecarboxamide]",565 nM
8,"N/C(=N\C(=O)c1cscn1)NCc1cnc(-c2ccc(Cl)cc2)c(-c2ccc(Cl)cc2)c1 [Compound of Example 83, N-(amino(((5,6-bis(4-chlorophenyl)pyridin-3-yl)methyl)amino)methylene)thiazole-4-carboxamide]",942 nM
9,"N/C(=N\S(=O)(=O)c1ccccc1)NCc1cnc(-c2ccc(Cl)cc2F)c(-c2ccc(Cl)cc2)c1 [Compound of Example 36, N-(amino(((6-(4-chloro-2-fluorophenyl)-5-(4-chlorophenyl)pyridin-3-yl)methyl)amino)methylene)benzenesulfonamide]",237 nM
10,"N/C(=N\S(=O)(=O)c1ccccc1)NCc1cnc(-c2ccc(C(F)(F)F)cc2)c(-c2ccc(Cl)cc2)c1 [Compound of Example 11, N-(amino(((5-(4-chlorophenyl)-6-(4-(trifluoromethyl)phenyl)pyridin-3-yl)methyl)amino)methylene)benzenesulfonamide]",348 nM
11,"COc1nc(-c2ccc(Cl)cc2)c(-c2ccc(Cl)cc2)cc1CN/C(N)=N/S(=O)(=O)c1ccccc1 [Compound of Example 88, N-(amino(((5,6-bis(4-chlorophenyl)-2-methoxypyridin-3-yl)methyl)amino)methylene)benzenesulfonamide]",104 nM
12,"N/C(=N\S(=O)(=O)c1ccccc1)NCc1cnc(-c2ccc(Cl)cc2)c(-c2cccc(Cl)c2)c1 [Compound of Example 15, N-(amino(((5-(3-chlorophenyl)-6-(4-chlorophenyl)pyridin-3-yl)methyl)amino)methylene)benzenesulfonamide]",308 nM
13,"COc1cccc(S(=O)(=O)/N=C(\N)NCc2cnc(-c3ccc(Cl)cc3)c(-c3ccc(Cl)cc3)c2)c1 [Compound of Example 50, N-(amino(((5,6-bis(4-chlorophenyl)pyridin-3-yl)methyl)amino)methylene)-3-methoxybenzenesulfonamide]",114 nM
14,"CN(C)S(=O)(=O)/N=C(\N)NCc1cnc(-c2ccc(Cl)cc2)c(-c2ccc(Cl)cc2)c1 [Compound of Example 60, ((2-amino-2-(((5,6-bis(4-chlorophenyl)pyridin-3-yl)methyl)amino)-1-azavinyl)sulfonyl)dimethylamine]",1320 nM
15,"N#Cc1ccc(C(=O)/N=C(\N)NCc2cnc(-c3ccc(Cl)cc3)c(-c3ccc(Cl)cc3)c2)cc1 [Compound of Example 62, N-(amino(((5,6-bis(4-chlorophenyl)pyridin-3-yl)methyl)amino)methylene)-4-cyanobenzamide]",471 nM
16,"N/C(=N\C(=O)CC(F)(F)F)NCc1cnc(-c2ccc(Cl)cc2)c(-c2ccc(Cl)cc2)c1 [Compound of Example 84, N-(amino(((5,6-bis(4-chlorophenyl)pyridin-3-yl)methyl)amino)methylene)-3,3,3-trifluoropropanamide]",1380 nM
17,"N/C(=N\S(=O)(=O)c1ccccc1)NCc1cnc(-c2ccc(C(F)(F)F)cc2)c(-c2ccccc2)c1 [Compound of Example 93, N-(amino(((5-phenyl-6-(4-(trifluoromethyl)phenyl)pyridin-3-yl)methyl)amino)methylene)benzenesulfonamide]",1070 nM
18,"Cc1ccc(-c2ncc(CN/C(N)=N/S(=O)(=O)c3ccccc3)cc2-c2ccc(Cl)cc2)c(F)c1 [Compound of Example 13, N-(amino(((5-(4-chlorophenyl)-6-(2-fluoro-4-methylphenyl)pyridin-3-yl)methyl)amino)methylene)benzenesulfonamide]",237 nM
19,"CC(C)Oc1ccc(-c2cc(CN/C(N)=N/S(=O)(=O)c3ccccc3)cnc2-c2ccc(Cl)cc2)cc1 [Compound of Example 23, N-(amino(((6-(4-chlorophenyl)-5-(4-isopropoxyphenyl)pyridin-3-yl)methyl)amino)methylene)benzenesulfonamide]",1720 nM
20,"N/C(=N\C(=O)c1ccccc1)NCc1cnc(-c2ccc(Cl)cc2)c(-c2ccc(Cl)cc2)c1 [Compound of Example 34, N-(amino(((5,6-bis(4-chlorophenyl)pyridin-3-yl)methyl)amino)methylene)benzamide]",817 nM
21,"N/C(=N\S(=O)(=O)c1cccc(F)c1)NCc1cnc(-c2ccc(Cl)cc2)c(-c2ccc(Cl)cc2)c1 [Compound of Example 27, N-(amino(((5,6-bis(4-chlorophenyl)pyridin-3-yl)methyl)amino)methylene)-3-fluorobenzenesulfonamide]",532 nM
22,"N/C(=N\C(=O)Cc1ccccc1)NCc1cnc(-c2ccc(Cl)cc2)c(-c2ccc(Cl)cc2)c1 [Compound of Example 75, N-(amino(((5,6-bis(4-chlorophenyl)pyridin-3-yl)methyl)amino)methylene)-2-phenylacetamide]",353 nM
23,"N/C(=N\S(=O)(=O)c1ccccc1)NCc1cnc(-c2ccc(Cl)cc2O)c(-c2ccc(Cl)cc2)c1 [Compound of Example 97, N-(amino(((6-(4-chloro-2-hydroxyphenyl)-5-(4-chlorophenyl)pyridin-3-yl)methyl)amino)methylene)benzenesulfonamide]",922 nM
24,"N/C(=N\C(=O)C1CCC(F)(F)CC1)NCc1cnc(-c2ccc(Cl)cc2)c(-c2ccc(Cl)cc2)c1 [Compound of Example 85, N-(amino(((5,6-bis(4-chlorophenyl)pyridin-3-yl)methyl)amino)methylene)-4,4-difluorocyclohexanecarboxamide]",373 nM
25,"N/C(=N\S(=O)(=O)c1ccccc1)NCc1cnc(-c2ccccc2)c(-c2ccc(Cl)cc2)c1 [Compound of Example 3, N-(amino(((5-(4-chlorophenyl)-6-phenylpyridin-3-yl)methyl)amino)methylene)benzenesulfonamide]",705 nM
